Laboratory results: ChEMBL document CHEMBL1127721, “EPSP synthase inhibitor design IV. New aromatic substrate analogs and symmetrical inhibitors containing novel 3-phosphate mimics” (Bioorg Med Chem Lett, 1994)

Biological target: T1, 3-phosphoshikimate 1-carboxyvinyltransferase (Escherichia coli K-12, UniProt P0A6D3)
T1 sequence (P0A6D3 whole entry): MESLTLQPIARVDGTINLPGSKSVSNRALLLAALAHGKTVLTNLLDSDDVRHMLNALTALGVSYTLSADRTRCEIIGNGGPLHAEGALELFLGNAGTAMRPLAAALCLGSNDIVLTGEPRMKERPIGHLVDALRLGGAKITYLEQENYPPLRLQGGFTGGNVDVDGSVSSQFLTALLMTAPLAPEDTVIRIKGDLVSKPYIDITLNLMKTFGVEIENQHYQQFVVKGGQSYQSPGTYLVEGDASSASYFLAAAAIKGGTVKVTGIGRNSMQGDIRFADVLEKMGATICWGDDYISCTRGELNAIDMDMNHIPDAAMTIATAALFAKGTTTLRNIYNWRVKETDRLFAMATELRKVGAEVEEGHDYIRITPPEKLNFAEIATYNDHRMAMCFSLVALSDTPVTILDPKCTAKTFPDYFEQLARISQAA
Test: Inhibition of Escherichia coli EPSP synthase

Compound | IC50 [mM] | Ki [nM] | Ki (read-out: Ki app) [nM]
O=C(O)COc1cc(OC(C(=O)O)C(=O)O)cc(C(=O)O)c1 | 2 |  | 
O=C(O)COc1cc(CP(=O)(O)O)cc(C(=O)O)c1 | 10 |  | 
O=C(O)c1cc(OC(C(=O)O)P(=O)(O)O)cc(OP(=O)(O)O)c1 (stereo not drawn) | 0.02 | 160 | 
O=C(O)c1cc(OP(=O)(O)O)cc(OP(=O)(O)O)c1 | 0.085 |  | 780
O=C(O)c1cc(OC(C(=O)O)C(=O)O)cc(OC(C(=O)O)C(=O)O)c1 | 0.21 |  | 2500
O=C(O)COc1cc(C(=O)O)cc(C(O)P(=O)(O)O)c1 (stereo not drawn) | 3 |  | 
O=C(O)COc1cc(C(=O)O)cc(P(=O)(O)O)c1 | 10 |  | 
O=C(O)c1cc(O)cc(OP(=O)(O)O)c1 | 7.9 |  | 
O=C(O)CO[C@@H]1CC(C(=O)O)=C[C@@H](OP(=O)(O)O)[C@@H]1O | 0.1 | 1500 | 
O=C(O)c1cc(O)cc(C(O)P(=O)(O)O)c1 (stereo not drawn) | 10 |  | 
O=C(O)c1cc(CP(=O)(O)O)cc(CP(=O)(O)O)c1 | 3 |  | 
O=C(O)c1cc(O)cc(CP(=O)(O)O)c1 | > 80 |  | 
O=C(O)c1cc(O)cc(OC(C(=O)O)C(=O)O)c1 | 10 |  | 
O=C(O)COc1cc(OP(=O)(O)O)cc(C(=O)O)c1 | 1.4 |  | 
